Measured values published in patent publication US10787447B2, “Pharmaceutical compounds” (Heptares Therapeutics Limited, priority 2018, dated 2020).
Read-outs that look alike come from different tables or passages of the source.

Legend:
[1] = molecular target: T1, human muscarinic M1 receptor (Homo sapiens, UniProt P11229); assay: Alphascreen Surefire phospho-ERK1/2 functional assay, M1; format: cell-based; details: for % Emax cf. ACh, M1 / Emax: Emax relative to ACh; for EC50: phospho-ERK1/2; for Emax: CHO, read-out: % Emax cf. ACh, M1, CHO cells stably expressing human M1
T1 sequence (P11229 1-460): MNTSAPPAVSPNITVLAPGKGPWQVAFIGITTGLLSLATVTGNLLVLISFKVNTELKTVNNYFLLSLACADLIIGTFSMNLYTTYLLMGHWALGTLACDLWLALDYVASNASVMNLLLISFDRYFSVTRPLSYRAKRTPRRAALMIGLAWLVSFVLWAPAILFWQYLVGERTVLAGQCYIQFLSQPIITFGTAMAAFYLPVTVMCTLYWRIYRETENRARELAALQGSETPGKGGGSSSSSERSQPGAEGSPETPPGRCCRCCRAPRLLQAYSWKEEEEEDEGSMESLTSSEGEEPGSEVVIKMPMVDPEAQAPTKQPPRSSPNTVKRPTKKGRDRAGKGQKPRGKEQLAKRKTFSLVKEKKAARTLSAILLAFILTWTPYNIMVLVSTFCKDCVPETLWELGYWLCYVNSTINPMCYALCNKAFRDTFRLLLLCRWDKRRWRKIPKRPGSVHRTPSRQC
Experimental: (§1) Functional assays were performed using the Alphascreen Surefire phospho-ERK1/2 assay (Crouch & Osmond, Comb. Chem. High Throughput Screen, 2008). ERK1/2 phosphorylation is a downstream consequence of both Gq/11 and Gi/o protein coupled receptor activation, making it highly suitable for the assessment of M1, M3 (Gq/11 coupled) and M2, M4 receptors (Gi/o coupled), rather than using different assay formats for different receptor subtypes. CHO cells stably expressing the human muscarinic M1, M2, M3 or M4 receptor were plated (25K/well) onto 96-well tissue culture plates in MEM-alpha+10% dialysed FBS. Once adhered, cells were serum-starved overnight. Agonist stimulation was performed by the addition of 5 μL agonist to the cells for 5 min (37° C.). Media was removed and 50 μL of lysis buffer added. After 15 min, a 4 μL sample was transferred to 384-well plate and 7 μL of detection mixture added.
For the vast majority of examples at least two diastereomers exist and these have been separated, unless otherwise stated, using the techniques of reversed phase HPLC, chiral HPLC or chiral SFC. Isomer assignment (Isomer 1, Isomer 2, etc.) is based on the retention time of the compound using the separation technique that was performed in the final purification step. By implication, this could be reversed phase HPLC, chiral HPLC or chiral SFC retention time, and this will vary from compound to compound.

[2] = molecular target: T2, human muscarinic M4 receptor (Homo sapiens, UniProt P08173); assay: Alphascreen Surefire phospho-ERK1/2 functional assay, M4; format: cell-based; details: for % Emax cf. ACh, M4 / Emax: Emax relative to ACh; for EC50: phospho-ERK1/2; for Emax: CHO, read-out: % Emax cf. ACh, M4, CHO cells stably expressing human M4
T2 sequence (P08173 1-479): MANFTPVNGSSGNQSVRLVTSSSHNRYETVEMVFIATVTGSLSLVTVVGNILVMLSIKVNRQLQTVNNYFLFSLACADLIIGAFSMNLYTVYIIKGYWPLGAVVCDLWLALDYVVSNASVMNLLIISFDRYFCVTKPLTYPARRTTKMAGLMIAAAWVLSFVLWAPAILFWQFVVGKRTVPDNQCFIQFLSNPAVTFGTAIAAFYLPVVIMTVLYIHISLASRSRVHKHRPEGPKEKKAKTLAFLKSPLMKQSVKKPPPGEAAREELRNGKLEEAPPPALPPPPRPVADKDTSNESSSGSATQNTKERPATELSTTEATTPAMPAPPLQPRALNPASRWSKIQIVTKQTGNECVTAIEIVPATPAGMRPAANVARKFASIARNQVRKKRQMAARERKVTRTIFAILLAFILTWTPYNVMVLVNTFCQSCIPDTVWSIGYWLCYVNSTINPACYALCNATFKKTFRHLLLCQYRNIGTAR
Experimental: as §1, with “ERK1/2” for “Functional assays were performed using the Alphascreen Surefire phospho-ERK1/2 assay (Crouch & Osmond, Comb. Chem. High Throughput Screen, 2008). ERK1/2”
Isomer assignment (Isomer 1, Isomer 2, etc.) is based on the retention time of the compound using the separation technique that was performed in the final purification step. By implication, this could be reversed phase HPLC, chiral HPLC or chiral SFC retention time, and this will vary from compound to compound.

[3] = CHO cells stably expressing human M4, read-out: pEC50 M4 (converted)
[4] = CHO cells stably expressing human M1, read-out: pEC50 M1 (converted)
[5] = pEC50 M1, CHO cells stably expressing human M1
[6] = pEC50 M4, CHO cells stably expressing human M4

Row | Compound | EC50 [2, 3] [µM] | EC50 [1, 4] [µM] | Emax [1] [%] | Emax [2] [%] | EC50 [1, 5] [µM] | EC50 [2, 6] [µM] | further results
1 | CCOC(=O)N1C2COCC1CC(N1CCC(C#N)(c3ccccn3)CC1)C2 (single isomer, unassigned) [Example 3-1 Isomer 2, Ethyl 7-[4-cyano-4-(pyridin-2-yl)piperidin-1-yl]-3-oxa-9-azabicyclo[3.3.1]nonane-9-carboxylate] | 0.309 | – | – | – | – | – | % Emax cf. ACh, M1 ([1]; CHO cells stably expressing human M1): 79%; % Emax cf. ACh, M4 ([2]; CHO cells stably expressing human M4): 78%
2 | CCOC(=O)N1C2COCC1CC(N1CCC(C(=O)N3CCCCCC3)CC1)C2 (single isomer, unassigned) [Example 7-4 Isomer 1, Ethyl 7-[4-(azepan-1-ylcarbonyl)piperidin-1-yl]-3-oxa-9-azabicyclo[3.3.1]nonane-9-carboxylate] | > 20 | 0.55 | 85 | 65 | – | – | –
3 | CCOC(=O)N1C2COCC1CC(N1CCC3(CC1)OC(=O)NC3CC)C2 (single isomer, unassigned) [Example 5-4 Isomer 1b, Ethyl 7-(4-ethyl-2-oxo-1-oxa-3,8-diazaspiro[4.5]dec-8-yl)-3-oxa-9-azabicyclo[3.3.1]nonane-9-carboxylate] | – | – | – | – | > 20 | 0.316 | % Emax cf. ACh, M1 ([1]; CHO cells stably expressing human M1, listed as 5-4 Isomer 1b): 9%; % Emax cf. ACh, M4 ([2]; CHO cells stably expressing human M4, listed as 5-4 Isomer 1b): 30%
4 | CCOC(=O)N1C2COCC1CC(N1CCC3(CC1)CNC(=O)O3)C2 (single isomer, unassigned) [Example 5-3 Isomer 1, Ethyl 7-(2-oxo-1-oxa-3,8-diazaspiro[4.5]dec-8-yl)-3-oxa-9-azabicyclo[3.3.1]nonane-9-carboxylate] | 0.832 | 1.45 | 75 | 33 | – | – | –
5 | CCOC(=O)N1C2COCC1CC(N1CCC(c3cccc(OC)n3)CC1)C2 (single isomer, unassigned) [Example 2-1 Isomer 1, Ethyl 7-[4-(6-methoxypyridin-2-yl)piperidin-1-yl]-3-oxa-9-azabicyclo[3.3.1]nonane-9-carboxylate] | > 20 | 0.251 | 44 | 17 | – | – | –
6 | CCOC(=O)N1C2COCC1CC(N1CCC(C#N)(c3ccccn3)CC1)C2 (single isomer, unassigned) [Example 3-1 Isomer 1, Ethyl 7-[4-cyano-4-(pyridin-2-yl)piperidin-1-yl]-3-oxa-9-azabicyclo[3.3.1]nonane-9-carboxylate] | 0.129 | 1.38 | 97 | 94 | – | – | –
7 | CCOC(=O)N1C2COCC1CC(N1CCC(C(=O)NCC(C)C)CC1)C2 (single isomer, unassigned) [Example 7-2 Isomer 1, Ethyl 7-{4-[(2-methylpropyl)carbamoyl]piperidin-1-yl}-3-oxa-9-azabicyclo[3.3.1]nonane-9-carboxylate] | – | – | 96 | 72 | 0.0794 | 0.457 | –
8 | CCOC(=O)N1C2COCC1CC(N1CCC(C(=O)NC3(C)CCC3)CC1)C2 (single isomer, unassigned) [Example 7-1 Isomer 2, Ethyl 7-{4-[(1-methylcyclobutyl)carbamoyl]piperidin-1-yl}-3-oxa-9-azabicyclo[3.3.1]nonane-9-carboxylate] | > 20 | 1.74 | – | – | – | – | % Emax cf. ACh, M1 ([1]; CHO cells stably expressing human M1, listed as 7-1 Isomer 2): 62%; % Emax cf. ACh, M4 ([2]; CHO cells stably expressing human M4, listed as 7-1 Isomer 2): 54%
9 | CCOC(=O)N1C2COCC1CC(N1CCC(C(=O)NC3(C)CCC3)CC1)C2 (single isomer, unassigned) [Example 7-1 Isomer 1, Ethyl 7-{4-[(1-methylcyclobutyl)carbamoyl]piperidin-1-yl}-3-oxa-9-azabicyclo[3.3.1]nonane-9-carboxylate] | 0.324 | 0.38 | – | – | – | – | % Emax cf. ACh, M1 ([1]; CHO cells stably expressing human M1, listed as 7-1 Isomer 1): 91%; % Emax cf. ACh, M4 ([2]; CHO cells stably expressing human M4, listed as 7-1 Isomer 1): 76%
10 | CCOC(=O)N1C2COCC1CC(N1CCC(N(CC(C)(C)C)C(C)=O)CC1)C2 (single isomer, unassigned) [Example 6-2 Isomer 1, Ethyl 7-{4-[acetyl(2,2-dimethylpropyl)amino]piperidin-1-yl}-3-oxa-9-azabicyclo[3.3.1]nonane-9-carboxylate] | 1.05 | 0.617 | 71 | 45 | – | – | –
11 | CCOC(=O)N1C2COCC1CC(N1CCC3(CC1)OC(=O)NC3CC)C2 (single isomer, unassigned) [Example 5-4 Isomer 2a, Ethyl 7-(4-ethyl-2-oxo-1-oxa-3,8-diazaspiro[4.5]dec-8-yl)-3-oxa-9-azabicyclo[3.3.1]nonane-9-carboxylate] | – | – | – | – | 0.977 | 0.2 | % Emax cf. ACh, M1 ([1]; CHO cells stably expressing human M1, listed as 5-4 Isomer 2a): 75%; % Emax cf. ACh, M4 ([2]; CHO cells stably expressing human M4, listed as 5-4 Isomer 2a): 61%
12 | COC(=O)N1C2COCC1CC(N1CCC(N(CC3(C)CCC3)C(C)=O)CC1)C2 (single isomer, unassigned) [Example 8-1 Isomer 1, Methyl 7-(4-(N-((1-methylcyclobutyl)methyl)acetamido)piperidin-1-yl)-3-oxa-9-azabicyclo[3.3.1]nonane-9-carboxylate] | – | – | – | – | 0.0851 | 0.155 | % Emax cf. ACh, M1 ([1]; CHO cells stably expressing human M1, listed as 8-1 Isomer 1): 123%; % Emax cf. ACh, M4 ([2]; CHO cells stably expressing human M4, listed as 8-1 Isomer 1): 77%
13 | COC(=O)N1C2COCC1CC(N1CCC(N(Cc3ccccc3)C(C)=O)CC1)C2 (single isomer, unassigned) [Example 8-2 Isomer 1, Methyl 7-(4-(N-benzylacetamido)piperidin-1-yl)-3-oxa-9-azabicyclo[3.3.1]nonane-9-carboxylate] | – | – | – | – | 0.0794 | 0.661 | % Emax cf. ACh, M1 ([1]; CHO cells stably expressing human M1, listed as 8-2 Isomer 1): 99%; % Emax cf. ACh, M4 ([2]; CHO cells stably expressing human M4, listed as 8-2 Isomer 1): 54%
14 | COC(=O)N1C2COCC1CC(N1CCC(N(Cc3ccccc3)C(C)=O)CC1)C2 (single isomer, unassigned) [Example 8-2 Isomer 2, Methyl 7-(4-(N-benzylacetamido)piperidin-1-yl)-3-oxa-9-azabicyclo[3.3.1]nonane-9-carboxylate] | – | – | – | – | 0.603 | > 20 | % Emax cf. ACh, M1 ([1]; CHO cells stably expressing human M1, listed as 8-2 Isomer 2): 60%; % Emax cf. ACh, M4 ([2]; CHO cells stably expressing human M4, listed as 8-2 Isomer 2): 27%
